Experimental data published in paper PMC2760932 (Journal of medicinal chemistry, 2009).
pEC50, pKi: −log10 of the molar value.

Columns and labels:
[1] = molecular target: human D3 dopamine receptor (Homo sapiens, UniProt P35462); assay: Competition binding, [125I]IABN, HEK 293 cells transfected with human D3; details: for D4/D3: Table 2, ratio of Ki values
dopamine D3 receptor = dopamine D3 receptor (Homo sapiens, UniProt P35462); assay: Quinpirole-stimulated mitogenesis assay, D3
D2 receptor = D2 receptor (Homo sapiens, UniProt P14416); assay: D2 binding assay by the contractor
D2 receptor, sequence (P14416 whole entry): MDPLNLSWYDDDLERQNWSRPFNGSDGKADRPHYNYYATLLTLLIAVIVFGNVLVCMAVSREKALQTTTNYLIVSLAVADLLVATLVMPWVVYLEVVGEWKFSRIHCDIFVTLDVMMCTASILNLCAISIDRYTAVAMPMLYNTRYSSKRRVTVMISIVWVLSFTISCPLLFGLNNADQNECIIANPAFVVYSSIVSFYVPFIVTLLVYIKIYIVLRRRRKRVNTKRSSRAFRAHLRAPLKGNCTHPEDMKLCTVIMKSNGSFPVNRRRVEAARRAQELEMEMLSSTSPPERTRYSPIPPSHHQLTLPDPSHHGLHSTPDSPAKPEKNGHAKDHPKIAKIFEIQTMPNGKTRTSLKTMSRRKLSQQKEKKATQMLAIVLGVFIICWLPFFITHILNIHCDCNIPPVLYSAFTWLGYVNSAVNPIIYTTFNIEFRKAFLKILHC

human D3 dopamine receptor, sequence (P35462 whole entry): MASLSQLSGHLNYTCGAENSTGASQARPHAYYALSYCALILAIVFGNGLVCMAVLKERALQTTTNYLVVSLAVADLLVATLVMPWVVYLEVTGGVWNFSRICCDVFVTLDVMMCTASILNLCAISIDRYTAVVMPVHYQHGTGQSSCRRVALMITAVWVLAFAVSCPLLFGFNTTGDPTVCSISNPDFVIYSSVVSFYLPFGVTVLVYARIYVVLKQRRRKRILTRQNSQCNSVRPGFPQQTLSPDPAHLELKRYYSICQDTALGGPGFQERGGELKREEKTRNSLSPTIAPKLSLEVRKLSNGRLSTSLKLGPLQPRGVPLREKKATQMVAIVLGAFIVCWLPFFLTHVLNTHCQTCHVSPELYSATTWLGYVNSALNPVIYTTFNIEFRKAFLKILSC
dopamine D3 receptor, sequence (P35462 whole entry): as above

SMILES	pKi (D2 receptor)	D4/D3 [1]	further results
COc1ccccc1N1CCN(CCCCNC(=O)c2cc3cc(I)ccc3o2)CC1 [Compound 14, 5-Iodo-N-(4-(4-(2-methoxy-phenyl)piperazin-1-yl)butyl)benzofuran-2-carboxamide]	–	–	D3 selectivity over D2 (binding) ([1]; from Ki values): > 100 fold
COc1ccccc1N1CCN(CC(O)CCNC(=O)c2cc3cc(F)ccc3[nH]2)CC1 (centres unmarked) [Compound 26, 5-Fluoro-N-(3-hydroxy-4-(4-(2-methoxy-phenyl)piperazin-1-yl)butyl)-1H-indole-2-carboxamide]	–	–	D3 selectivity over D2 receptor mediated mitogenesis (dopamine D3 receptor): ~100 fold
COc1ccc2[nH]c(C(=O)NCCC(O)CN3CCN(c4cccc(Cl)c4Cl)CC3)cc2c1 (centres unmarked) [Compound 29, N-(4-(4-(2,3-Dichloro-phenyl)piperazin-1-yl)-3-hydroxybutyl)-5-methoxy-1H-indole-2-carboxamide]	< 6.40	–	pKi [1]: 9.00
COc1ccc2[nH]c(C(=O)NCCC(O)CN3CCN(c4ccccc4OC)CC3)cc2c1 (centres unmarked) [Compound 30, N-(3-Hydroxy-4-(4-(2-methoxy-phenyl)piperazin-1-yl)butyl)-5-methoxy-1H-indole-2-carboxamide]	< 6.40	–	pEC50 (dopamine D3 receptor): 7.86
O=C(NCCC(O)CN1CCN(c2cccc(Cl)c2Cl)CC1)c1cc2ccccc2o1 (centres unmarked) [Compound 31, N-(4-(4-(2,3-Dichloro-phenyl)piperazin-1-yl)-3-hydroxybutyl)benzofuran-2-carboxamide]	–	>1600	–
O=C(NCCC(O)CN1CCN(c2cccc(Cl)c2Cl)CC1)c1cc2cc(I)ccc2o1 (centres unmarked) [Compound 33, N-(4-(4-(2,3-Dichloro-phenyl)piperazin-1-yl)-3-hydroxybutyl)-5-iodobenzofuran-2-carboxamide]	–	>1300	–
